# According to patent publication EP2790511B1 (Merck Sharp & Dohme Corp., priority 2011, dated 2013):
# Target: T1, hROMK (hKir1.1) (Homo sapiens, UniProt P48048)
# T1 construct: expressed in transfected cells
# T1 sequence (P48048 1-391): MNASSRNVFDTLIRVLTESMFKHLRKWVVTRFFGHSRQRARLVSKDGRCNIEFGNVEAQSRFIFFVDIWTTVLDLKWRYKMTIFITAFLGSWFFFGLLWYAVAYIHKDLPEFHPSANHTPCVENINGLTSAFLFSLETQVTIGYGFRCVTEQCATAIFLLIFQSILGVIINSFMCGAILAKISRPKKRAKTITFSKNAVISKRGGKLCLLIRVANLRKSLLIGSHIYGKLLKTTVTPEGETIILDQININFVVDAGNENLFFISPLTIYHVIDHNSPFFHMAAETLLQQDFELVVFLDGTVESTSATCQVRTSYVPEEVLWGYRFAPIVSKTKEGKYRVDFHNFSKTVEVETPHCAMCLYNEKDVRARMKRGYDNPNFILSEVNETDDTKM
# Assay: Thallium Flux Assay
# Format: cell-based
# Conditions: HEK293 cells stably expressing hROMK (hKir1.1), FLIPR-Tetra; read-out: Thallium Flux IC50
# Outline: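 HEK293 cells stably expressing hROMK, loaded with FluxOR dye 90 min at ambient temperature, then compound 30 min with 0.3 mM ouabain in probenecid buffer pH 7.4.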
row,Compound,IC50 [nM]
1,"COc1cc([C@H]2CN3CCN(C(=O)Cc4cnc(-n5cnnn5)nc4)C[C@H]3CO2)ccc1C#N [Example 143, 2-methoxy-4-[(3S,9aS)-8-{[2-(1H-tetrazol-1-yl)pyrimidin-5-yl]acetyl}octahydropyrazino[2,1-c][1,4]oxazin-3-yl]benzonitrile]",190
2,"COc1cc([C@@H]2CN3CCN(C(=O)Cc4cnc(-n5cnnn5)nc4)C[C@H]3CO2)ccc1C#N [Example 144, 2-methoxy-4-[(3R,9aS)-8-{[2-(1H-tetrazol-1-yl)pyrimidin-5-yl]acetyl}octahydropyrazino[2,1-c][1,4]oxazin-3-yl]benzonitrile]",390
3,"Cc1c([C@@H]2CN3CCN(C(=O)Cc4cnc(-n5cnnn5)c(F)c4)C[C@@H]3CO2)ccc(F)c1C#N [Example 146, 6-fluoro-3-[(3R,9aR)-8-{[5-fluoro-6-(1H-tetrazol-1-yl)pyridin-3-yl]acetyl}octahydropyrazino[2,1-c][1,4]oxazin-3-yl]-2-methylbenzonitrile]",90
4,"Cc1c([C@H]2CN3CCN(C(=O)Cc4cnc(-n5cnnn5)c(F)c4)C[C@@H]3CO2)ccc(F)c1C#N [Example 147, 6-fluoro-3-[(3S,9aR)-8-{[5-fluoro-6-(1H-tetrazol-1-yl)pyridin-3-yl]acetyl}octahydropyrazino[2,1-c][1,4]oxazin-3-yl]-2-methylbenzonitrile]",140
5,"Cc1c([C@@H]2CN3CCN(C(=O)Cc4cnc(-n5cnnn5)c(F)c4)C[C@H]3CO2)ccc(F)c1C#N [Example 148, 6-fluoro-3-[(3R,9aS)-8-{[5-fluoro-6-(1H-tetrazol-1-yl)pyridin-3-yl]acetyl}octahydropyrazino[2,1-c][1,4]oxazin-3-yl]-2-methylbenzonitrile]",80
6,"Cc1c([C@H]2CN3CCN(C(=O)Cc4cnc(-n5cnnn5)c(F)c4)C[C@H]3CO2)ccc(F)c1C#N [Example 149, 6-fluoro-3-[(3S,9aS)-8-{[5-fluoro-6-(1H-tetrazol-1-yl)pyridin-3-yl]acetyl}octahydropyrazino[2,1-c][1,4]oxazin-3-yl]-2-methylbenzonitrile]",130
7,"Cc1nc(-n2cnnn2)nc(C)c1CC(=O)N1CCN2C[C@H](c3ccc(F)c(C#N)c3C)OC[C@@H]2C1 [Example 150, 3-[(3S,9aS)-8-{[4,6-dimethyl-2-(1H-tetrazol-1-yl)pyrimidin-5-yl]acetyl}octahydropyrazino[2,1-c][1,4]oxazin-3-yl]-6-fluoro-2-methylbenzonitrile]",290
8,"Cc1nc(-n2cnnn2)nc(C)c1CC(=O)N1CCN2C[C@@H](c3ccc(F)c(C#N)c3C)OC[C@H]2C1 [Example 152, 3-[(3R,9aR)-8-{[4,6-dimethyl-2-(1H-tetrazol-1-yl)pyrimidin-5-yl]acetyl}octahydropyrazino[2,1-c][1,4]oxazin-3-yl]-6-fluoro-2-methylbenzonitrile]",200

# Same assay, conditions: Thallium Flux IC50
row,Compound,IC50 [nM]
1,"O=C1OCCc2cc([C@@H]3CN4CCN(C(=O)Cc5cnc(-n6cnnn6)nc5)C[C@H]4CO3)ccc21 [Example 145, 6-[(3R,9aS)-8-{[2-(1H-tetrazol-1-yl)pyrimidin-5-yl]acetyl}octahydropyrazino[2,1-c][1,4]oxazin-3-yl]-3,4-dihydro-1H-isochromen-1-one]",240
2,"Cc1nc(-n2cnnn2)nc(C)c1CC(=O)N1CCN2C[C@H](c3ccc(F)c(C#N)c3C)OC[C@H]2C1 [Example 151, 3-[(3S,9aR)-8-{[4,6-dimethyl-2-(1H-tetrazol-1-yl)pyrimidin-5-yl]acetyl}octahydropyrazino[2,1-c][1,4]oxazin-3-yl]-6-fluoro-2-methylbenzonitrile]",300
3,"Cc1c([C@H]2CN3CCN(C(=O)Cc4ncc(-n5cnnn5)cc4Cl)C[C@H]3CO2)ccc(F)c1C#N [Example 153, 3-[(3S,9aS)-8-{[3-chloro-5-(1H-tetrazol-1-yl)pyridin-2-yl]acetyl}octahydropyrazino[2,1-c][1,4]oxazin-3-yl]-6-fluoro-2-methylbenzonitrile]",170
